Measurements: patent publication US20220273658A1, “SMALL MOLECULE LIVER X RECEPTOR MODULATORS AND USES THEREOF” (University of Houston System, priority 2019, published 2022)

Legend:
PDAC cells [1] = experiment: cell viability with glutaminase inhibitor BPTES and 1E5; type: cell-based, human; conditions: BPTES alone
Excerpt: TCA cycle intermediates act as anaplerotic substrate for gluconeogenesis and lipogenesis. […] GOT2 converts glutamine-derived glutamate to alpha-KG. During this process oxaloacetate is converted to aspartate which is required to maintain redox homeostasis. Studies have shown that inhibition of GOT2 in PDAC promotes senescence.

[2] = tested on: myeloid-derived suppressor cells (MDSCs); conditions: in vivo; cited from earlier work
[3] = pre-clinical testing; cited from earlier work
HPNE cells = experiment: growth of non-transformed pancreatic epithelial cells (WST screen; FIG. 32D); type: cell-based, human; conditions: FIG. 32(D)
Procedure: The initial identification and subsequent characterization of the two novel LXR ligands and their derivative compounds was carried out in screens in three human pancreatic cancer cell and one non-transformed human pancreatic epithelial cell line in three or more replicate experiments for each cell line using the WST tetrazolium salt reduction assays.
(§1) The synthesis and characterization of KD-01-39, a derivative of 3A4, have not been described previously.

KPC tumor cells = experiment: growth of KPC tumor cells from mouse model of PDAC; type: cell-based
Excerpt: The effects of the ligands and derivatives on the growth of PDAC cells were further validated by cell counting and clonogenic assays.

[4] = tested on: LXR target genes SREBF1c, ABCA1, and ABCG1; experiment: expression of LXR target genes in pancreatic cancer cell lines; type: cell-based, human; conditions: three pancreatic cancer cell lines
Excerpt: To characterize the activity of the newly discovered ligands, the expression of LXR target genes SREBF1c, ABCA1, and ABCG1 was examined following treatment with vehicle, synthetic agonist GW3965, and Compounds 1E5 and 3A4. […] Basal expression of SREBF1c, the canonical LXR target gene involved in the regulation of glucose and lipid metabolism, was disrupted by the addition of novel LXR ligands, whereas their expression was induced following treatment with synthetic agonist GW3965 in all three pancreatic cancer cell lines tested, whereas the effects on ABCA1 and ABCG1 varied between the two novel ligands and across the cell lines.
(§2) To elucidate mechanisms of inverse agonism by the novel ligands, TR-FRET experiments were conducted to determine the effects of 1E5 and 3A4 on the recruitment of NR co-activators and co-repressors. […] In addition to their functions as inverse agonists, extended treatments with 1E5 and 3A4 also destabilized or decreased LXR proteins.

[5] = tested on: LXR ligand-binding domain; experiment: TR-FRET assay of co-activator and co-repressor peptide recruitment; type: biochemical
Procedure: as §2, §1

LXR-LBD = experiment: differential scanning fluorimetry; type: binding
Excerpt: as §1

PDAC cells [6] = experiment: treatment of PDAC cells with KD-01-39 (FIG. 32); type: cell-based, human; conditions: all cancer lines tested
Excerpt: as §1

PDAC = PDAC patients; cited from earlier work
MDSC and CD8+ T-cells = conditions: in vivo; cited from earlier work

O=C(Cc1ccccc1)Nc1nnc(CCSCCc2nnc(NC(=O)Cc3ccccc3)s2)s1 [BPTES, reference compound]
pancreatic cancer cell viability (PDAC cells [1]): reduced pancreatic cancer cell viability

C[C@H](CCOc1cccc(CC(=O)O)c1)N(Cc1cccc(C(F)(F)F)c1Cl)CC(c1ccccc1)c1ccccc1 [RGX-104]
anti-tumor effects of PD-1 inhibitor immunotherapy [2]: enhanced the anti-tumor effects of PD-1 inhibitor immunotherapy | recruitment and apoptosis of immunosuppressive MDSCs [2]: blocked the recruitment and increased apoptosis

O=S(=O)(c1ccccc1)N(CC(F)(F)F)c1ccc(C(O)(C(F)(F)F)C(F)(F)F)cc1 [Compound T0901317]
circulating and liver triglyceride levels [3]: increased circulating and liver triglyceride levels

COc1cc(OC)cc(C(=O)N2CCN(c3ccccc3Br)CC2)c1 [KD-01-39]
effect on non-cancerous pancreatic HPNE cells (HPNE cells): minimal effect | growth of KPC tumor cells (KPC tumor cells): inhibition of pancreatic cancer cells | expression of LXR target genes [4]: decreased the expression of LXR target genes | co-activator peptide binding to LXR ligand-binding domain ([5]; co-activator (D22) peptide): did not affect recruitment of co-activator peptides | binding of NCOR and SMRT co-repressor peptides ([5]; co-repressor (NCOR and SMRT-ID2) peptides): enhanced recruitment of NCOR and SMRT co-repressor peptides in a dosage dependent manner | LXR-LBD structure and dye dissociation with increasing temperature (LXR-LBD): disrupted the LBD structure | efficacy against cancer lines compared with 3A4 (PDAC cells [6]): same or similar efficacy as 3A4

Nc1ccn([C@@H]2O[C@H](CO)[C@@H](O)C2(F)F)c(=O)n1 [gemcitabine]
improvement of median survival (PDAC): approximately two weeks

Cc1cc(C)c(S(=O)(=O)N(CCc2cccc(Br)c2)Cc2ccc(-c3cccc(S(C)(=O)=O)c3)cc2)c(C)c1 [SR9243]
MDSC recruitment to tumors (MDSC and CD8+ T-cells): decreased MDSC recruitment to tumors | expansion and recruitment of tumor-killing CD8+ T-cells (MDSC and CD8+ T-cells): increased the expansion and recruitment
